Source: patent publication US20240317683A1, “METHODS OF TREATING MOOD DISORDERS” (priority 2020, published 2024)
Structures can show the parent of a compound that is named as a salt. Where two headings read alike, the source gives them in different places.

How the values were obtained:
[1] = Metabolic stability in rat liver microsomes (RLM); assay type: in vitro ADME; details: both sexes, pooled rat liver microsomes, pH 7.4, NADPH
Protocol: RLM Stability. Pooled RLM from adult male and female donors (Xenotech R1000) were used. Microsomal incubations were carried out in multi-well plates. […] Control incubations were performed by replacing the NADPH-cofactor system with PBS. Test compounds (1 μM, final solvent concentration 1.0%) were incubated with microsomes at 37° C. with constant shaking. Six time points over 60 minutes were analyzed, with 60 μL aliquots of the reaction mixture being drawn at each time point.

[2] = test system: monoamine oxidase A and B (MAO-A and MAO-B); assay: Stability in the presence of monoamine oxidases (human liver mitochondria); assay type: in vitro ADME; details: for MAO stability (in words): human liver mitochondria preparation; for half-life at 1 μM / microsomal CLint at 1 μM: human liver mitochondria, pH 7.4; for half-life at 1 μM / microsomal CLint at 1 μM / Remaining (t = 60 min): human mitochondrial preparation, 1 μM
Protocol: Liver Mitochondria Incubations. Human liver mitochondria (Xenotech H0610.M) were used. Mitochondrial incubations were carried out in multi-well plates. […] Six time points over 60 minutes were analyzed.

[3] = Pharmacokinetics in mice, plasma; assay type: in vivo, C57BL/6 mice; details: for AUC(0-t) / clearance / half-life / Cmax / Tmax: male, C57BL/6, mouse plasma; for F: mouse, based on plasma AUC0-last
Protocol: Animals. Male C57BL/6 mice, aged 8-12 weeks, were used in these studies. Four mice were housed in each cage. Temperature and humidity were maintained at 22±3° C. and 30-70%, respectively, and illumination was controlled to give a 12 h light and 12 h dark cycle. Temperature and humidity were recorded by an auto-controlled data logger system. All animals were provided laboratory rodent diet. Reverse osmosis water treated with ultraviolet light was provided ad libitum. Animals were randomly assigned to treatment groups.
Drugs. Compounds 4 and 5 were prepared as described above. All other compounds were commercially obtained. Test compounds were used as the hydrogen fumarate (1 and 2) or hydrochloride (3, 4, and 5) salts and were dissolved in a vehicle consisting of normal saline. They were then administered intravenously (IV) via the tail vein, subcutaneously (SC), or orally (PO) via gavage at a dose of 1 or 10 mg/kg (calculated based on the free base) and at a volume of 5 ml/kg body weight.
Sample Collection and Bioanalysis. Blood samples (approximately 60 μL) were collected under light isoflurane anesthesia (Surgivet®) from the retro orbital plexus at 0.08, 0.25, 0.5, 1, 2, 4, 8, and 24 h (4 animals per time point). Immediately after blood collection, plasma was harvested by centrifugation at 4,000 rpm for 10 min at 4° C. and samples were stored at −70±10° C. until bioanalysis. Following blood collection, animals were immediately sacrificed, the abdominal vena-cava was cut open, and the whole body was perfused from the heart using 10 mL of normal saline, and brain samples were collected from all animals. After isolation, brain samples were rinsed three times in ice-cold normal saline (for 5-10 seconds/rinse using ˜5-10 mL normal saline in disposable petri dish for each rinse) and dried on blotting paper. Brain samples were homogenized using ice-cold phosphate-buffered saline (pH 7.4). Total homogenate volume was three times the tissue weight. All homogenates were stored at −70±10° C. until bioanalysis. For bioanalysis, 25 μL aliquots of plasma/brain study samples or spiked plasma/brain calibration standards were added to individual pre-labeled micro-centrifuge tubes followed by 100 μL of an internal standard solution (glipizide, 500 ng/ml in acetonitrile) except for blanks, where 100 μL of acetonitrile was added. Samples were vortexed for 5 minutes and then centrifuged for 10 minutes at 4,000 rpm at 4° C. Following centrifugation, 100 μL of each clear supernatant was transferred to a 96 well plate and analyzed with a fit-for-purpose LC-MS/MS method, with authentic samples of each analyte used for calibration and identification.
Data Analysis. Pharmacokinetic parameters were estimated using the non-compartmental analysis tool of Phoenix® WinNonlin software (Ver 8.0).

[4] = Stability in rat brain homogenate; assay type: in vitro ADME, Sprague Dawley rats; details: for half-life at 1 μM: male, Sprague Dawley; for half-life at 1 μM / % Compound Remaining (after 120 min): rat brain homogenate, 37° C., 1 μM
Protocol: Rat Brain Homogenate Stability. Frozen rat brain homogenate (pooled from male Sprague Dawley rats, BioreclamationIVT, RATOOBRAINMZA) was thawed in a water bath at 37° C. immediately prior to use. Positive controls and test compounds (final concentration in incubation medium=1 μM for test compounds and 2 μM for controls, all with 2% DMSO) were incubated in duplicate for each time point (0, 10, 30, 60, and 120 min) in the rat brain homogenate at a total reaction volume of 100 μL at 37° C. At the end of each incubation period, reactions were immediately quenched with 400 μL of acetonitrile containing internal standard (200 ng/ml tolbutamine and 200 ng/ml labetalol) and mixed thoroughly. Plates were then sealed, shaken for 20 min, and centrifuged at 4,000 rpm and 4° C. for 20 min. Aliquots of 50 μL of each supernatant were diluted into 100 uL of water and the mixtures were then shaken again for 10 min.

[5] = molecular target: 5-HT2A (Homo sapiens (Human), UniProt P28223); assay: FLIPR Ca2+ flux agonist assay, 5-HT2A; assay type: cell-based; details: for EC50 / 5-HT2A % Act @ Max Dose: HEK293
Protocol: (§1) A solution of 250 mM probenecid in 1 mL FLIPR assay buffer was prepared fresh. This was combined with a fluorescent dye (Fluo-4 Direct™) to make a final assay concentration of 2.5 mM. […] The fluorescent dye was then added to the assay plate along with assay buffer to a final volume of 40 μL. The cell plate was incubated for 50 min at 37° C. and 5% CO2 and placed into the FLIPR Tetra along with the compound plate. 10 μL of references and compounds were then transferred from the compound plate into the cell plate and the fluorescent signal was read.

[6] = molecular target: 5-HT1A (Homo sapiens (Human), UniProt P08908); assay: FLIPR Ca2+ flux agonist assay, 5-HT1A; assay type: cell-based; details: for 5-HT1A % Act @ Max Dose: Ca2+ flux, CHO cells
Protocol: as §1

[7] = Stability in mouse brain homogenate; assay type: in vitro ADME, CD-1 mice; details: for half-life at 1 μM: male, CD-1; for half-life at 1 μM / % Compound Remaining (after 120 min): mouse brain homogenate, 37° C., 1 μM
Protocol: Mouse Brain Homogenate Stability. Frozen mouse brain homogenate (pooled from male CD-1 mice, BioreclamationIVT, MSE00BRAINMZA) was thawed in a water bath at 37° C. immediately prior to use. Positive controls and test compounds (final concentration in incubation medium=1 μM for test compounds and 2 μM for controls, all with 2% DMSO) were incubated in duplicate for each time point (0, 10, 30, 60, and 120 min) in the mouse brain homogenate at a total reaction volume of […] at 37° C. At the end of each incubation period, reactions were immediately quenched with 400 μL of acetonitrile containing internal standard (200 ng/mL tolbutamine and 200 ng/ml labetalol) and mixed thoroughly. Plates were then sealed, shaken for 20 min, and centrifuged at 4,000 rpm and 4° C. for 20 min. Aliquots of 50 μL of each supernatant were diluted into 100 μL of water and the mixtures were then shaken again for 10 min.

[8] = IV, 10 mg/kg, read-out: Cmax (C0 back-extrapolated to t = 0)

Structure (SMILES)	half-life at 1 μM [1] [min]	microsomal CLint at 1 μM [1] [µL/min/mg]	MAO stability (in words) [2]	half-life at 1 μM [2] [min]	microsomal CLint at 1 μM [2] [µL/min/mg]	Remaining (t = 60 min) [2] [%]	AUC(0-t) ([3]; IV, 10 mg/kg) [ng·h/mL]	clearance ([3]; IV, 10 mg/kg) [mL/min/kg]	half-life ([3]; IV, 10 mg/kg) [min]	Cmax [3, 8] [ng/mL]	AUC(0-t) ([3]; oral, 10 mg/kg) [ng·h/mL]	Tmax ([3]; oral, 10 mg/kg) [min]	half-life ([3]; oral, 10 mg/kg) [min]	Cmax ([3]; oral, 10 mg/kg, read-out: Cmax) [ng/mL]	F ([3]; oral, 10 mg/kg) [%]	stability in rat brain homogenate (in words) [4]	half-life at 1 μM [4] [min]	% Compound Remaining (after 120 min) [4] [%]	EC50 [6] [µM]	5-HT1A % Act @ Max Dose [6] [%]	also measured
CCCN(CC)CCc1c[nH]c2ccccc12 [Compound 1, ethylpropyltryptamine]	1.4	970	highly stable	> 145	< 15.9	95.1	844	197	114	3820	22.1	4.8	113	20.3	2.6	high stability	> 289	86.9	88.7	75.5	EC50 [5]: 0.0305 µM; stability in mouse brain homogenate (in words) [7]: high stability; half-life at 1 μM [7]: > 289 min; % Compound Remaining (after 120 min) [7]: 113.8%
CCN(C)CCc1c[nH]c2ccccc12 [Compound 2, methylethyltryptamine]	0.9	1560	intermediate stability	> 145	< 15.9	84.5	545	304	88.8	963	238	15	82.2	102	44	high stability	> 289	76.5	59.5	73.6	Emax [5]: 36.2%; selectivity for 5-HT2A over 5-HT2B (in words) [5]: highly selective; 5-HT2A % Act @ Max Dose [5]: 36.2%; stability in mouse brain homogenate (in words) [7]: intermediate stability; half-life at 1 μM [7]: 123 min; % Compound Remaining (after 120 min) [7]: 47.8%
CCN(C)CCc1c[nH]c2ccc(F)cc12 [Compound 4, N-ethyl-2-(5-fluoro-1H-indol-3-yl)-N-methylethan-1-amine hydrochloride]	6.1	229	intermediate stability	> 145	< 15.9	75.0	1790	92.8	51.6	2910	623	15	80.4	272	35	intermediate stability	183	62.0	16.9	83.01	AUC(0-t) ([3]; SC, 1 mg/kg): 57.5 ng·h/mL; Tmax ([3]; SC, 1 mg/kg): 4.8 min; half-life ([3]; SC, 1 mg/kg): 27 min; Cmax ([3]; SC, 1 mg/kg, read-out: Cmax): 83.2 ng/mL; AUC(0-t) ([3]; SC, 10 mg/kg): 1170 ng·h/mL; Tmax ([3]; SC, 10 mg/kg): 30 min; half-life ([3]; SC, 10 mg/kg): 54 min; Cmax ([3]; SC, 10 mg/kg, read-out: Cmax): 631 ng/mL; F ([3]; SC, 1 mg/kg): 32%; F ([3]; SC, 10 mg/kg): 65%; selectivity for 5-HT2A over 5-HT2B (in words) [5]: highly selective; 5-HT2A % Act @ Max Dose [5]: 87.6%; EC50 [5]: 0.0206 µM; stability in mouse brain homogenate (in words) [7]: intermediate stability; half-life at 1 μM [7]: 54.3 min; % Compound Remaining (after 120 min) [7]: 20.7%
